Laboratory results published in paper PMC5065625, “Structure-mechanism-based engineering of chemical regulators targeting distinct pathological factors in Alzheimer's disease” (Nature Communications, 2016).

Tests used:
[1] = system: cationic organic radical of ABTS; assay: Trolox equivalent antioxidant capacity (TEAC) assay in M17 cell lysates; type: biochemical, human; conditions: relative to Trolox
Method: The assay employing M17 cell lysates was conducted following the protocol of the antioxidant assay kit purchased from Cayman Chemical Company (Ann Arbor, MI, USA) with minor modifications. For the antioxidant assay using cell lysates, cells were seeded in a six-well plate and grown to ∼80–90% confluence. Cell lysates were prepared following a previously reported method with modifications. M17 cells were washed once with cold PBS (pH 7.4, GIBCO) and harvested by gently pipetting off adherent cells with cold PBS. The cell pellet was generated by centrifugation (2,000g for 10 min at 4 °C). This cell pellet was sonicated on ice (5 s pulses, three times with 20 s intervals between each pulse) in 2 ml of cold Assay Buffer (5 mM potassium phosphate, pH 7.4, containing 0.9% NaCl and 0.1% glucose). The cell lysates were centrifuged at 5,000g for 10 min at 4 °C. The supernatant was removed and stored on ice until use. For standard and samples in 96-well plates, 10 μl of the supernatant of cell lysates was delivered followed by addition of compound, metmyoglobin, ABTS and H2O2 in order. After 5 min incubation at room temperature on a shaker, absorbance values at 750 nm were recorded. The antioxidant concentration was calculated according to the measured absorbance (% inhibition=100 × (A0 – A)/A0, where A0 is absorbance of the supernatant of cell lysates). The measurements were conducted in triplicate.

Zn(II)–Aβ40/Aβ42 = assay: Aβ aggregation inhibition/disaggregation experiments (gel/western blot, TEM), Zn(II); type: biochemical; conditions: Aβ 25 μM, compound 50 μM, 37 °C, 24 h; gel/western blot and TEM
Method: (§1) The ability of 1–4 to control the aggregation of both metal-free Aβ and metal-Aβ in inhibition (Fig. 2) and disaggregation experiments (Supplementary Fig. 1) was evaluated using the two major Aβ isoforms (Aβ40/Aβ42)[1][2][3][6][16] found in the AD-affected brain. Molecular weight (MW) distributions and morphologies of the resulting Aβ species were determined by gel electrophoresis followed by western blotting (gel/western blot) and transmission electron microscopy (TEM). Generally, under the experimental conditions employed herein, compound-free Aβ samples with and without metal ions assemble into a distribution of large aggregates that are too big to penetrate into the gel matrix, which yields very little smearing in the gel/western blots, but they can be visualized by TEM. The administration of compounds, able to interact with Aβ, inhibit the formation of high MW aggregates, and/or disassemble preformed aggregates, typically generates smaller-sized Aβ species that can enter into the gel and produce a substantial amount of streaking compared with the samples containing Aβ only.
Before experiments, Aβ40 or Aβ42 was dissolved in ammonium hydroxide (NH4OH; 1% v/v, aq). The resulting solution was aliquoted, lyophilized overnight and stored at −80 °C. A stock solution of Aβ was then prepared by dissolving lyophilized peptide in 1% NH4OH (10 μl) and diluting with ddH2O. The concentration of the solution was determined by measuring the absorbance of the solution at 280 nm (ɛ=1,450 M^–1 cm^–1 for Aβ40; ɛ=1,490 M^–1 cm^–1 for Aβ42). The peptide stock solution was diluted to a final concentration of 25 μM in Chelex-treated buffered solution containing HEPES ([…]; pH 6.6 for Cu(II) samples; pH 7.4 for metal-free and Zn(II) samples) and NaCl (150 μM). […]
The Aβ samples from in vivo or in vitro experiments were analysed by gel electrophoresis followed by western blotting using an anti-Aβ antibody (6E10)[24][25][27][28][29]. […]

Cu(II)–Aβ40/Aβ42 = assay: Aβ aggregation inhibition/disaggregation experiments (gel/western blot, TEM), Cu(II); type: biochemical; conditions: Aβ 25 μM, compound 50 μM, 37 °C, 24 h; gel/western blot and TEM
Method: as §1
Before experiments, Aβ40 or Aβ42 was dissolved in ammonium hydroxide (NH4OH; 1% v/v, aq). The resulting solution was aliquoted, lyophilized overnight and stored at −80 °C. A stock solution of Aβ was then prepared by dissolving lyophilized peptide in 1% NH4OH (10 μl) and diluting with ddH2O. The concentration of the solution was determined by measuring the absorbance of the solution at 280 nm (ɛ=1,450 M^–1 cm^–1 for Aβ40; ɛ=1,490 M^–1 cm^–1 for Aβ42). The peptide stock solution was diluted to a final concentration of 25 μM in Chelex-treated buffered solution containing HEPES ([…]; pH 6.6 for Cu(II) samples; pH 7.4 for metal-free and Zn(II) samples) and NaCl ([…]). For the inhibition studies, compounds (final concentration 50 μM, 1% v/v dimethyl sulfoxide (DMSO)) were added to the sample of Aβ (25 μM) in the absence and presence of a metal chloride salt (CuCl2 or ZnCl2; 25, 50, 100 or 125 μM) followed by incubation at 37 °C with constant agitation for 24 h. For the disaggregation studies, Aβ with and without a metal chloride salt was incubated for 24 h at 37 °C with constant agitation to generate preformed Aβ aggregates. The resulting samples were then treated with compounds (50 μM) and incubated with constant agitation for additional 24 h.
The Aβ samples from in vivo or in vitro experiments were analysed by gel electrophoresis followed by western blotting using an anti-Aβ antibody (6E10)[24][25][27][28][29]. Samples (10 μl) were separated on a 10–20% Tris-tricine gel (Invitrogen, Grand Island, NY, USA). […]

[2] = Stability in solution (UV–vis, ESI–MS), metal-free; type: physicochemical; conditions: for k, metal-free (rate of decay of the absorbance peak) / t1/2, metal-free / Stability in solution: 50 μM; for Stability in solution: metal-free, HEPES pH 7.4, 37 °C, 5 h
Method: The stability of 1–4 (50 μM) in the absence and presence of CuCl2 (25 μM) was monitored every 10 min using UV–vis for 5 h in buffer ([…], pH 7.4, […]; 1% DMSO) at 37 °C. The resulting spectra were corrected for baseline shifts at 800 nm and the half-life and rate of decay of the absorbance at 250, 385 and 400 nm for 4, [Cu(II)+1], and [Cu(II)+3], respectively, was calculated using the first-order exponential decay function as implemented in Origin 9.1 (OrginLab Corp., Northampton, MA, USA). Additionally, the species present were identified using ESI–MS. Samples containing 1–4 (50 μM) with or without CuCl2 (25 μM) were incubated in ddH2O (1% DMSO) at 37 °C for the selected time points before being freshly frozen using liquid nitrogen and stored at −80 °C until they were thawed immediately before measurement.

[3] = HEPES pH 7.4, 150 μM NaCl, 37 °C
[4] = HEPES pH 7.4, 150 μM NaCl, 37 °C, absorbance peak decay

SMILES: Nc1ccc(NCc2ccccn2)cc1 [compound 1, N^1-(pyridin-2-ylmethyl)benzene-1,4-diamine]
- Free organic radical scavenging ability (TEAC) [1]: greater capacity than 2
- Modulation of Zn(II)-induced Aβ aggregation (Zn(II)–Aβ40/Aβ42): did not show any noticeable activity
- Modulation of Cu(II)-induced Aβ aggregation (Cu(II)–Aβ40/Aβ42): redirect Cu(II)-promoted Aβ40 and Aβ42 aggregation
- k, metal-free (rate of decay of the absorbance peak) [2, 3]: too slow to accurately measure the rate
- t1/2, metal-free [2, 4]: No noticeable spectral changes were observed over 5 h
- Stability in solution [2]: stable over 5 h

SMILES: CN(C)c1ccc(NCc2ccc[nH]2)cc1 [compound 4, N^1-((1H-pyrrol-2-yl)methyl)-N^4,N^4-dimethylbenzene-1,4-diamine]
- Free organic radical scavenging ability (TEAC) [1]: greater capacity than 2
- Modulation of Zn(II)-induced Aβ aggregation (Zn(II)–Aβ40/Aβ42): redirect both Cu(II)- and Zn(II)-induced Aβ aggregation
- Modulation of Cu(II)-induced Aβ aggregation (Cu(II)–Aβ40/Aβ42): redirect both Cu(II)- and Zn(II)-induced Aβ aggregation
- k, metal-free (rate of decay of the absorbance peak) [2, 3]: 0.016 ± 0.004 min⁻¹
- t1/2, metal-free [2, 4]: ~40 min
- half-life at 50 μM ([2]; HEPES buffer, pH 7.4, 50 μM, HEPES pH 7.4, 150 μM NaCl, 37 °C, absorbance peak decay, read-out: t1/2, metal-free): 43 ± 5 min
- Stability in solution [2]: unstable

SMILES: COc1cc(NCc2ccccn2)cc(OC)c1 [compound 2, 3,5-dimethoxy-N-(pyridin-2-ylmethyl)aniline]
- Modulation of Cu(II)-induced Aβ aggregation (Cu(II)–Aβ40/Aβ42): modulating activity at higher Cu(II) concentrations
- k, metal-free (rate of decay of the absorbance peak) [2, 3]: too slow to accurately measure the rate
- t1/2, metal-free [2, 4]: No noticeable spectral changes were observed over 5 h
- Stability in solution [2]: stable over 5 h

SMILES: CN(C)c1ccc(NCc2ccc3ccccc3n2)cc1 [compound 3, N^1,N^1-dimethyl-N^4-(quinolin-2-ylmethyl)benzene-1,4-diamine]
- Free organic radical scavenging ability (TEAC) [1]: greater capacity than 2
- Modulation of Zn(II)-induced Aβ aggregation (Zn(II)–Aβ40/Aβ42): modulates Aβ aggregation involved by both Cu(II) and Zn(II)
- Modulation of Cu(II)-induced Aβ aggregation (Cu(II)–Aβ40/Aβ42): modulates Aβ aggregation involved by both Cu(II) and Zn(II)
- k, metal-free (rate of decay of the absorbance peak) [2, 3]: too slow to accurately measure the rate
- t1/2, metal-free [2, 4]: No noticeable spectral changes were observed over 5 h
- Stability in solution [2]: changes in its Ultraviolet-Visible (UV-vis) spectra after 5 h of incubation occurring at a very slow rate
